Test results as given in patent US4689326A, “Process for controlling hyperlipidemia” (Research Corporation, priority 1985, dated 1987).

Columns and labels:
^3 H-cholesterol = test: Effect on 3H Cholesterol Distribution in Rats, Example 12; assay type: in vivo, Sprague Dawley rats; details: oral 20 mg/kg/day
Experimental: A group of 6 Sprague Dawley rats, each weighing approximately 300 g, were treated with 3,4,5,6-dibenzohomopiperdine applied orally at a dosage of 20 mg/kg per day for 4 days. Six similar Sprague Dawley rats were untreated and served as a control. On the 13th day, 10 μCi of ^3 H-cholesterol was administered orally. The rats were sacrificed and tissue samples were combusted or plated on filter paper, dried and digested for 24 hours in hyamine hydroxide at 40° C. and counted. Results of this test are reported as disintegrations per minute (DPM) per total organ.
In Table 10, the average organ weight and feces of the treated and untreated rats are reported. The table indicates the concentration of ^3 H-cholesterol in the organs and feces of the treated and untreated (control) rats.

VLDL = test: Lipoprotein fractions in Rats, Example 11: VLDL; assay type: in vivo, Sprague Dawley male rats; details: oral 20 mg/kg/day, fourteen days, ± SD
Experimental: A group of six Sprague Dawley male rats were treated with 20 mg/kg/day of 3,4,5,6-dibenzohomopiperidine. The treatment was applied orally. An equal number of Sprague Dawley male rats, having approximately the same weight, were utilized as an untreated control. At the end of fourteen days the control and treated rats were sacrificed. Blood was collected from the abdominal aorta and lipoprotein fractions were obtained by the method of Hatch and Lees [Adv. Lipid Rees., 6, 1 (1968)] and Havel et al. [J. Clin Invest., 34, 1345 (1955)]. Each of the fractions were analyzed for cholesterol, triglycerides, neutral lipids, phospholipids and protein levels.

Feces = test: Lipid Extraction Studies in Rats, Example 11: feces; assay type: in vivo, Sprague Dawley male rats; details: oral 20 mg/kg/day, fourteen days, ± SD
[1] = target: T1, ATP Dependent Citrate Lyase (Mus musculus, UniProt Q91V92); test: In vitro enzyme activity, liver homogenate: ATP dependent citrate lyase; assay type: biochemical, CF1 male mouse; details: ± SD, N = 6, read-out: Percent Control, in vitro enzyme activity
T1 construct: 10% homogenates of CF1 male mouse liver; from tissue; host or cells: CF1 male mouse liver, 10% homogenate
T1 sequence (Q91V92 1-1091): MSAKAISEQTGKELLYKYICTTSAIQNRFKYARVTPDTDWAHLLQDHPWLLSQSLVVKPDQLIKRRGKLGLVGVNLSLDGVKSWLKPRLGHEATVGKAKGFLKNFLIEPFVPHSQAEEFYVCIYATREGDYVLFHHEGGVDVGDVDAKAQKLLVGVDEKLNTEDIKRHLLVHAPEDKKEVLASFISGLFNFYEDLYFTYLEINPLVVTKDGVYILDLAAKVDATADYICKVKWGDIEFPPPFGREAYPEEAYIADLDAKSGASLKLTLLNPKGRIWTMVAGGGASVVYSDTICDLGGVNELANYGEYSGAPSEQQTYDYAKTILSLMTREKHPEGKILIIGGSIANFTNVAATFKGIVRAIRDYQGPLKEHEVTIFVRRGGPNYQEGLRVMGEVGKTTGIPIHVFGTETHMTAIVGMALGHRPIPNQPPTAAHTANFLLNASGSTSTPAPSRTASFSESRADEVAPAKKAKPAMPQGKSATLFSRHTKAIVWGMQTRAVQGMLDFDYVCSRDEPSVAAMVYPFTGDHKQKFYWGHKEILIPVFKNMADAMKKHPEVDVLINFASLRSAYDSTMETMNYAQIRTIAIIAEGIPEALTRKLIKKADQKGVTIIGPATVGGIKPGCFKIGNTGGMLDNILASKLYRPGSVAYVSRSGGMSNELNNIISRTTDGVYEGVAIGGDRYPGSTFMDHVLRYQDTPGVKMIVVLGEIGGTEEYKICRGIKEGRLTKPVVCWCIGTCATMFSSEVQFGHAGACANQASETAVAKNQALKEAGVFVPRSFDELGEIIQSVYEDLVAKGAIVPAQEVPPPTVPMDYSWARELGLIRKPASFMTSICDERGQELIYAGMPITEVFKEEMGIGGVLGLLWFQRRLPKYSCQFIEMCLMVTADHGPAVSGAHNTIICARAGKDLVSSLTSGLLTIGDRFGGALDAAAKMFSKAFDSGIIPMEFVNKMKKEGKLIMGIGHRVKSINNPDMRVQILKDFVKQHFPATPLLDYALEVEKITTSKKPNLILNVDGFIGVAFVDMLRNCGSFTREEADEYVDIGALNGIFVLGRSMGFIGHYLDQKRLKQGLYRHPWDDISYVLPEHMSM
Experimental: In vitro enzymatic studies were undertaken using 10% homogenates of CF1 male mouse liver with […] of compound 3,4,5,6-dibenzohomopiperidine. In addition, in vivo enzymatic studies were performed, again using 10% liver homogenates (prepared in 0.25 M sucrose plus 0.001 M (ethylenedinitrilo)-tetraacetic acid, ph 7.25 from CF1 male mice obtained after administering 3,4,5,6-dibenzohomopiperidine for 16 days at a concentration ranging from 10 to 60 mg/kg/day, intraperitoneally.
The following enzyme activities were determined by following standard literature procedures: acetyl coenzyme synthetase; adenosine triphosphate dependent citrate lyase; mitochondrial citrate exchange; cholesterol/7 hydroxylase; 3-hydroxy-3-methyl-glutaryl coenzyme A reductase; acetyl coenzyme A carboxylase activity; fatty acid synthetase activity; sn-glycerol-3-phosphate acyl transferase activity; phosphatidate phosphohydrolase activity; cholesterol acyl transferase; and heparin activated hepatic lypoprotein lipase. Protein was determined for all enzyme assays by the Lowry et al. technique (J. Biol. Chem, 193, 265 (1951)).

In the case of `c1ccc2c(c1)CNCc1ccccc1-2` [Compound 3, 3,4,5,6-dibenzohomopiperidine], the “3H-cholesterol, Treated % Recovery” value (^3 H-cholesterol; brain) is reported as 0.162%, the “3H-cholesterol, Treated DPM per total organ” value (^3 H-cholesterol; brain) is reported as 9,216 DPM and the “3H-cholesterol, Treated % Recovery” value (^3 H-cholesterol; chyme) is reported as 11.739%. For the same molecule, the “3H-cholesterol, Treated DPM” value (^3 H-cholesterol; chyme) was 667,840 DPM, the “3H-cholesterol, Treated % Recovery” value (^3 H-cholesterol; feces) was 14.462% and the “3H-cholesterol, Treated DPM” value (^3 H-cholesterol; feces) was 822,719 DPM. The “3H-cholesterol, Treated % Recovery” value (^3 H-cholesterol; heart) was 0.452%, the “3H-cholesterol, Treated DPM per total organ” value (^3 H-cholesterol; heart) was 25,692 DPM and the “3H-cholesterol, Treated % Recovery” value (^3 H-cholesterol; kidney) was 0.652%. For the same molecule, the “3H-cholesterol, Treated DPM per total organ” value (^3 H-cholesterol; kidney) was 37,096 DPM, the “3H-cholesterol, Treated % Recovery” value (^3 H-cholesterol; large intestine) was 3.757% and the “3H-cholesterol, Treated DPM per total organ” value (^3 H-cholesterol; large intestine) was 213,777 DPM. For the same molecule, the “3H-cholesterol, Treated % Recovery” value (^3 H-cholesterol; liver) was 23.615%, the “3H-cholesterol, Treated DPM per total organ” value (^3 H-cholesterol; liver) was 1,343,450 DPM and the “3H-cholesterol, Treated % Recovery” value (^3 H-cholesterol; lung) was 2.183%. The “3H-cholesterol, Treated DPM per total organ” value (^3 H-cholesterol; lung) was 124,180 DPM, the “3H-cholesterol, Treated DPM” value (^3 H-cholesterol; plasma) was 26,018 DPM and the “3H-cholesterol, Treated % Recovery” value (^3 H-cholesterol; small intestine) was 38.525%. For the same molecule, the “3H-cholesterol, Treated DPM per total organ” value (^3 H-cholesterol; small intestine) was 2,191,623 DPM, the “3H-cholesterol, Treated % Recovery” value (^3 H-cholesterol; spleen) was 1.806% and the “3H-cholesterol, Treated DPM per total organ” value (^3 H-cholesterol; spleen) was 102,723 DPM. For the same molecule, the “3H-cholesterol, Treated % Recovery” value (^3 H-cholesterol; stomach) was 2.189%, the “3H-cholesterol, Treated DPM per total organ” value (^3 H-cholesterol; stomach) was 124,552 DPM and the “Cholesterol, concentration as a function of control” value (VLDL) was 40 ± 4%. The “Neutral Lipids, concentration as a function of control” value (VLDL) was 63 ± 6%, the “Phospholipids, concentration as a function of control” value (VLDL) was 95 ± 7% and the “Protein, concentration as a function of control” value (VLDL) was 96 ± 8%. For the same molecule, the “Triglycerides, concentration as a function of control” value (VLDL) was 69 ± 5%, the “Cholesterol, concentration as a function of control” value (Feces) was 103 ± 7% and the “Mg Lipid Wt, concentration as a function of control” value (Feces) was 102 ± 8%. For the same molecule, the “Neutral Lipids, concentration as a function of control” value (Feces) was 108 ± 9%, the “Phospholipids, concentration as a function of control” value (Feces) was 108 ± 10% and the “Protein, concentration as a function of control” value (Feces) was 133 ± 8%. The “Triglycerides, concentration as a function of control” value (Feces) was 99 ± 7%, the remaining activity at 50 µM ([1]; 50 μM) was 87 ± 5% and the remaining activity at 100 µM ([1]; 100 μM) was 38 ± 3%. It also gave a remaining activity at 200 µM ([1]; 200 μM) of 33 ± 4%.
